The text below walks through data of patent US12472282B2, “Bioengineered wharton's jelly derived extracellular matrix” (University of Rochester, priority 2018, dated 2025).

In the test the test system is primary acute myeloid leukemia (AML) cells. The test is described as follows: Response to chemotherapy following treatment with doxorubicin, DWJM culture vs suspension culture. The class given is cell-based, human. Here is the method: AML patient samples collected by leukapheresis were cultured in DWJM disks for one week. Non-adherent cells were first aspirated and adherent cells were separately isolated and assessed for viability, apoptosis, and colony forming unit (CFU). RNA sequencing was performed at the end of culture. Response to chemotherapy following treatment with doxorubicin was also assessed. For all studies, DWJM-adherent and non-adherent cells were compared to suspension culture controls. Metabolic pathway analyses were conducted using enzyme-linked immunosorbent assay (ELISA). One-tailed t-test was used for comparison between the groups

As for `COc1cccc2c1C(=O)c1c(O)c3c(c(O)c1C2=O)C[C@@](O)(C(=O)CO)C[C@@H]3O[C@H]1C[C@H](N)[C@H](O)[C@H](C)O1` [doxorubicin], the “CFU activity after doxorubicin” value was 3.3 /300,000 cells (co-culture with DWJM, P=0.047) and 0.3 /300,000 cells (suspension culture cells).
